Numbers after ± are expanded uncertainties.
Settings: gamma densitometer

C1CCCCC1 [cyclohexane]
5000 kPa, Fluid (supercritical or subcritical phases)
Settings | mass density [kg/m3]
287 K | 788.3 ± 5.7
305.9 K | 763.7 ± 4.5
324.9 K | 752.1 ± 3.7
351 K | 731.8 ± 4.4
375 K | 704.3 ± 4.7
394.8 K | 686.7 ± 4.3
416.6 K | 666.5 ± 4.9
431.9 K | 646.2 ± 5.7
452.4 K | 620.2 ± 5.2
475.1 K | 595.5 ± 5.6
488.4 K | 573.5 ± 7.1
504.4 K | 546.3 ± 7.5
513.9 K | 527.5 ± 8.2
522.6 K | 510.3 ± 9.3
531.9 K | 487 ± 11
543 K | 454.5 ± 12
553.2 K | 426.2 ± 19
561.7 K | 365.6 ± 36
572.1 K | 259.5 ± 32
584.2 K | 187 ± 19
592.5 K | 167 ± 8
603.6 K | 149.3 ± 5.6
618.8 K | 133 ± 4.6
635 K | 118.3 ± 3.5
654.2 K | 109.8 ± 3.3
672.3 K | 96.5 ± 3.2
687.5 K | 92 ± 2.5
698.5 K | 89.9 ± 2.4

N#N [nitrogen]
mass density [kg/m3], Gas
Settings | 293.2 K | 473.2 K
100 kPa | 1.15 | 0.68
600 kPa | 7.36 ± 1.5 | 3.79 ± 1.5
1000 kPa | – | 8 ± 1.5
1100 kPa | 11.22 ± 1.5 | –
1600 kPa | 17.77 ± 1.5 | 11.8 ± 1.5
2100 kPa | 23.64 ± 1.5 | 14.69 ± 1.5
2600 kPa | 27.88 ± 1.5 | –
3100 kPa | 33.96 ± 1.5 | 21.05 ± 1.5
3600 kPa | 40.54 ± 1.6 | –
4000 kPa | – | 27.65 ± 1.6
4100 kPa | 46.43 ± 1.6 | –
4600 kPa | 53.49 ± 1.6 | –
5100 kPa | 58.28 ± 1.6 | –
5600 kPa | 62.2 ± 1.5 | –
6000 kPa | 69.11 ± 1.5 | –
